Laboratory results published in the supplement of paper PMC10307832.

Tests used:
Assay in all cases: relative viability (nuclei count vs DMSO), 5 days (fraction); higher = more cells survive
Imatinib + Alpelisib = compound: Cc1ccc(NC(=O)c2ccc(CN3CCN(C)CC3)cc2)cc1Nc1nccc(-c2cccnc2)n1 [Imatinib] + Cc1nc(NC(=O)N2CCC[C@H]2C(N)=O)sc1-c1ccnc(C(C)(C)C(F)(F)F)c1 [Alpelisib] (partner 2 µM)
How it was run: (§1)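 Relative viability is defined as nuclei in treated wells over nuclei in vehicle wells. Duplicate plates were run and medians reported. Lung cancer cell lines in 1536-well plates were dosed by pin tool one day after seeding, with one drug or with a fixed anchor-drug dose plus five library-drug doses (not always all listed) in √10 steps, and nuclei were counted after 5 days.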

Imatinib + Dasatinib = compound: Cc1ccc(NC(=O)c2ccc(CN3CCN(C)CC3)cc2)cc1Nc1nccc(-c2cccnc2)n1 [Imatinib] + Cc1nc(Nc2ncc(C(=O)Nc3c(C)cccc3Cl)s2)cc(N2CCN(CCO)CC2)n1 [Dasatinib] (partner 0.075 µM)
How it was run: as §1

Imatinib + Decitabine = compound: Cc1ccc(NC(=O)c2ccc(CN3CCN(C)CC3)cc2)cc1Nc1nccc(-c2cccnc2)n1 [Imatinib] + Nc1ncn([C@H]2C[C@H](O)[C@@H](CO)O2)c(=O)n1 [Decitabine] (partner 2 µM)
How it was run: as §1

Imatinib + Olaparib = compound: Cc1ccc(NC(=O)c2ccc(CN3CCN(C)CC3)cc2)cc1Nc1nccc(-c2cccnc2)n1 [Imatinib] + O=C(c1cc(Cc2n[nH]c(=O)c3ccccc23)ccc1F)N1CCN(C(=O)C2CC2)CC1 [Olaparib] (partner 8 µM)
How it was run: as §1

Row | Cell Line | relative viability (Imatinib + Alpelisib; first compound 0.02 µM) | relative viability (Imatinib + Alpelisib; first compound 0.06325 µM) | relative viability (Imatinib + Alpelisib; first compound 0.2 µM) | relative viability (Imatinib + Alpelisib; first compound 0.6325 µM) | relative viability (Imatinib + Alpelisib; first compound 2 µM) | relative viability (Imatinib + Dasatinib; first compound 0.02 µM) | relative viability (Imatinib + Dasatinib; first compound 0.06325 µM) | relative viability (Imatinib + Dasatinib; first compound 0.2 µM) | relative viability (Imatinib + Dasatinib; first compound 0.6325 µM) | relative viability (Imatinib + Dasatinib; first compound 2 µM) | relative viability (Imatinib + Decitabine; first compound 0.02 µM) | relative viability (Imatinib + Decitabine; first compound 0.06325 µM) | relative viability (Imatinib + Decitabine; first compound 0.2 µM) | relative viability (Imatinib + Decitabine; first compound 0.6325 µM) | relative viability (Imatinib + Decitabine; first compound 2 µM) | relative viability (Imatinib + Olaparib; first compound 0.02 µM) | relative viability (Imatinib + Olaparib; first compound 0.06325 µM) | relative viability (Imatinib + Olaparib; first compound 0.2 µM) | relative viability (Imatinib + Olaparib; first compound 0.6325 µM) | relative viability (Imatinib + Olaparib; first compound 2 µM)
1 | HCC-78 | 0.319 | 0.381 | 0.367 | 0.347 | 0.348 | 0.343 | 0.355 | 0.403 | 0.35 | 0.343 | 0.644 | 0.7 | 0.715 | 0.721 | 0.71 | 0.564 | 0.688 | 1.09 | 0.885 | 0.999
2 | LCLC-103H | 0.909 |  | 0.9 | 0.851 |  | 0.637 | 0.436 | 0.471 | 0.471 | 0.388 | 0.717 | 0.741 | 0.767 | 0.74 | 0.754 | 0.776 | 0.773 | 0.834 | 0.694 | 
3 | NCI-H1792 | 0.921 | 0.515 | 0.661 | 0.507 | 0.638 | 0.847 | 0.429 | 0.769 | 0.596 | 0.666 | 0.573 | 0.496 | 0.576 |  | 0.449 | 0.477 | 0.481 | 0.225 |  | 0.33
4 | NCI-H358 | 0.799 |  | 0.841 | 0.759 | 0.868 | 0.151 | 0.13 | 0.153 | 0.163 | 0.135 | 0.205 | 0.168 | 0.214 | 0.207 | 0.202 | 0.733 | 0.699 | 0.613 | 0.549 | 0.556
5 | NCI-H1355 | 0.855 |  | 0.834 | 0.889 | 0.882 | 0.766 |  | 0.659 | 0.696 | 0.678 | 0.359 |  | 0.35 | 0.345 | 0.35 | 0.812 |  | 0.822 | 0.762 | 0.699
6 | PC-14 | 1.15 |  | 1.13 | 0.926 | 0.854 | 0.221 | 0.201 | 0.2 | 0.196 | 0.239 | 0.253 | 0.244 | 0.249 | 0.199 | 0.208 | 0.274 | 0.229 | 0.357 | 0.221 | 0.244
7 | A-427 | 1.11 |  |  | 1.1 | 1.06 |  |  | 0.798 | 0.805 | 0.714 | 0.588 | 0.536 | 0.558 | 0.558 | 0.562 | 0.797 |  | 0.754 | 0.715 | 0.748
8 | BEN | 1.1 | 0.785 | 0.93 | 1.05 | 1.03 | 0.312 |  | 0.307 | 0.339 | 0.296 | 0.711 | 0.557 | 0.738 | 0.732 | 0.732 | 1.2 | 1.14 | 1.01 | 1.08 | 1.06
9 | Calu-6 | 1.1 |  | 1.11 | 1.01 | 0.946 |  |  |  |  |  |  |  |  |  |  | 0.658 | 0.628 | 0.673 | 0.575 | 0.549
10 | NCI-H650 | 1.19 | 1.15 | 1.08 | 1.2 | 0.983 | 0.5 | 0.425 | 0.488 | 0.53 | 0.406 | 0.299 | 0.36 | 0.291 | 0.313 | 0.262 | 0.432 | 0.405 | 0.392 | 0.431 | 0.383
11 | NCI-H3122 | 0.763 | 0.939 | 0.894 | 0.865 | 0.837 |  | 0.518 | 0.921 | 0.894 | 0.808 | 0.44 | 0.467 | 0.441 | 0.439 | 0.375 | 0.71 | 0.618 | 0.701 | 0.693 | 0.66
12 | EMC-BAC-2 | 0.823 | 0.81 | 0.877 | 0.788 | 0.844 | 0.337 | 0.349 | 0.322 | 0.327 | 0.308 | 0.998 | 1.04 |  | 1.07 | 0.936 | 0.465 | 0.551 | 0.474 | 0.592 | 0.486
13 | HOP-62 | 1.13 |  | 0.758 |  | 0.934 | 0.726 |  | 0.642 | 0.576 | 0.54 | 0.199 |  | 0.25 | 0.232 | 0.211 | 0.408 | 0.478 | 0.456 | 0.498 | 0.372
14 | CAL-12T | 1.47 | 1.62 | 1.42 | 1.17 | 1.14 | 0.625 |  | 0.612 | 0.503 | 0.51 |  |  |  |  |  | 0.756 |  | 0.735 | 0.634 | 0.77
15 | NCI-H1563 | 0.966 | 0.931 | 1.03 | 0.934 | 0.895 | 0.458 | 0.523 | 0.457 | 0.421 | 0.448 |  |  |  |  |  |  |  |  |  | 
16 | NCI-H1648 |  |  |  |  |  |  |  |  |  |  | 0.442 | 0.478 | 0.448 | 0.393 | 0.456 | 0.958 | 0.633 | 0.971 | 0.307 | 0.776
17 | HCC-44 | 0.895 | 0.819 | 0.941 | 0.71 | 0.791 |  |  |  |  |  | 0.967 |  | 0.954 | 0.971 | 0.899 | 0.956 |  |  | 1.02 | 0.967
18 | ChaGo-K-1 |  |  |  |  |  | 0.58 | 0.51 | 0.522 | 0.515 | 0.579 | 0.525 |  | 0.534 | 0.503 | 0.503 | 0.389 |  | 0.394 | 0.42 | 0.45
19 | NCI-H1299 | 1.16 | 1.1 | 1.14 | 1.12 | 0.983 |  |  |  |  |  |  |  |  |  |  | 0.987 | 0.948 | 1.01 | 0.983 | 0.97
20 | NCI-H1703 | 0.355 | 0.259 | 0.206 | 0.242 | 0.143 |  |  |  |  |  |  |  |  |  |  | 0.329 | 0.292 | 0.262 | 0.146 | 0.177
21 | EBC-1 | 0.763 |  | 0.893 | 0.823 | 0.634 |  |  |  |  |  |  |  |  |  |  | 0.776 | 0.719 | 0.728 | 0.68 | 0.573
